Measured values published in patent US6869945B2, “Pyrrolyl-and imidazolyl-acid amide derivatives useful as inhibitors of PDE4 isozymes” (Pfizer Inc, priority 2001, dated 2005).
pIC50: −log10 of the molar value. “Also recorded” adds a separate entry of the source. Blank lines part the entries; values can stand above or below the molecule they belong to.

Columns and labels:
[1] = in vivo; cited from earlier work
[2] = cited from earlier work
PDE4 = conditions: catalytic site (Sc); cited from earlier work
[3] = 54 subjects; cited from earlier work
[4] = test system: rhinorrhea in the antigen-challenged pig; conditions: cited from earlier work
[5] = test system: LPS-stimulated ex vivo TNF release and PHA induced lymphocyte proliferation; conditions: oral dose of 300 mg, cited from earlier work
guinea-pig trachea = conditions: cited from earlier work
[6] = test system: guinea-pig macrophage PDE4; conditions: cited from earlier work
[7] = test system: dextran sulfate induced colitis; conditions: cited from earlier work; for effects in dextran sulfate induced colitis: rat
[8] = 35 rheumatoid arthritis patients, t.i.d.; cited from earlier work
TNF-α mRNA expression = conditions: mouse, in vivo; cited from earlier work
epidermal basal cells = conditions: primary culture; cited from earlier work
[9] = test system: psoriatic epidermal slices and keratomed psoriatic epidermal slices; conditions: cited from earlier work
[10] = in vivo; cited from earlier work; remark: listed apart in the source
[11] = test system: human peripheral blood mononuclear cells; conditions: cited from earlier work
[12] = test system: endotoxin-induced acute renal failure; conditions: cited from earlier work
[13] = 15 mg twice a day for six weeks; cited from earlier work
[14] = test system: isolated pulmonary artery rings; conditions: normal rats and rats with hypoxia-induced pulmonary hypertension; cited from earlier work
[15] = test system: collagen II induced arthritis; conditions: 2 mg/kg twice daily for five days before the onset of arthritis; cited from earlier work
[16] = test system: croton oil-induced ear inflammation; conditions: mouse; cited from earlier work
[17] = test system: experimental allergic encephalomyelitis; conditions: in vivo; cited from earlier work

Structure (SMILES): Nc1nc2c([nH]1)c(=O)n(CC1CC1)c(=O)n2CC1CC1 [BRL-61,063, cipamfylline]
emesis / nausea and vomiting [1]: adverse events of nausea and vomiting

Structure (SMILES): COc1ccc([C@H](Cc2ccncc2)c2ccccc2)cc1OC1CCCC1 [CDP840]
late reactions to inhaled allergen / late-phase response ([2]; patients with bronchial asthma, oral): suppression; also recorded: significant inhibition | adverse events ([2]; treatment of asthma): without any adverse events of nausea or headache | potency at the Sc relative to SB-207,499 (PDE4): significantly higher potency

Structure (SMILES): Cc1cc2c3c(c1)C(c1ccccc1)=N[C@@H](NC(=O)c1ccncc1)C(=O)N3CC2 [CI-1018]
doses at which no adverse events were reported [3]: up to 400 mg

melting point: 117 to 118 °C
Structure (SMILES): CC(C)(O)c1ccc(CNC(=O)c2scnc2Oc2ccc3c(c2)OCO3)c(F)c1 [Example 5, 4-(Benzo[1,3]dioxol-5-yloxy)-thiazole-5-carboxylic acid 2-fluoro-4-(1-hydroxy-1-methyl-ethyl)-benzylamide]

Structure (SMILES): CCCC1C(=O)C2=C(C(CC)=NC2C)c2nc(OC)ccc21 [Example D-22888]
rhinorrhea ([4]; antigen-challenged pig): inhibit rhinorrhea | anti-allergic effect ([4]; pig, in vivo): strong anti-allergic affect

Structure (SMILES): CCNc1ncn(Cc2ccc(OC)c(OC3CCCC3)c2)c2nc(C(C)C)nc1-2 [Example V-11294A]
reduction of TNF levels ([5]; LPS-stimulated ex vivo TNF release): effective | reduction of lymphocyte proliferation ([5]; PHA induced): effective

Structure (SMILES): O=S1(=O)CCN(c2nc(NC3CC3)nc(C3CC3)n2)C1 [Formula (0.0.56)]
relaxant activity in a guinea-pig trachea model (guinea-pig trachea): potent relaxant agents

Structure (SMILES): CC1CC1c1nc(NC2CC2)nc(N2CCOCC2)n1 (centres unmarked) [Formula (0.0.57)]
relaxant activity in a guinea-pig trachea model (guinea-pig trachea): potent relaxant agents

Structure (SMILES): COc1ccc(S(=O)(=O)C(CCCCc2ccccc2)CC(=O)NO)cc1OC (centres unmarked) [Formula (0.1.36)]
pIC50 [6]: 9.00

Structure (SMILES): COc1ccc(S(=O)(=O)C(CCCCc2ccccc2)C(C)C(=O)NO)cc1 (centres unmarked) [Formula (0.1.37)]
pIC50 [6]: 7.52

Structure (SMILES): CCCn1c(=O)c2[nH]cnc2n(-c2ccc(Cl)cc2)c1=O [LAS31025]
effects in dextran sulfate induced colitis [7]: beneficial effects comparable to prednisolone

Structure (SMILES): COc1ccc(C(=O)Nc2c(Cl)cncc2Cl)cc1OC1CCCC1 [RP73401]
clinical effect, with reduction in C-reactive protein and IL-6 serum levels [8]: positive trend towards clinical improvement | TNF-α mRNA expression at the pannus/cartilage interface of paw joints (TNF-α mRNA expression): decrease

Structure (SMILES): COc1ccc(CC2CNC(=O)N2)cc1OC1CCCC1 (centres unmarked) [Ro 20-1724]
increase in cAMP concentrations (epidermal basal cells): three-fold increase | cAMP concentrations over controls [9]: very marked elevation | adverse effects [10]: without adverse systemic or cutaneous effects | psoriatic lesions compared with vehicle [10]: improve psoriatic lesions

Structure (SMILES): COc1ccc(CC2CNC(=O)N2)cc1OC1CCCC1 (centres unmarked) [Ro-201724]
proliferation of HPBM from normal patients and subjects with atopic dermatitis [11]: concentration-related inhibition | endotoxin-induced increases in renal vascular resistance and decreases in renal blood flow and glomerular filtration rate ([12]; post-treatment at 10 μg/kg/min): markedly attenuates | urinary cAMP excretion ([12]; post-treatment at 10 μg/kg/min): significantly increases | survival rates for endotoxin-treated rats ([12]; rat, in vivo): improve survival rates

Structure (SMILES): COc1ccc([C@]2(C#N)CC[C@@H](C(=O)O)CC2)cc1OC1CCCC1 [SB-207,499]
FEV1 and forced vital capacity (FVC) [13]: increrases

Structure (SMILES): CCCn1c(=O)c2[nH]cnc2n(-c2ccc(Cl)cc2)c1=O [arofylline]
effects in models of colitis in the rat ([7]; in vivo): beneficial effects

Structure (SMILES): CCCCn1c(=O)c2c(ncn2CC(C)=O)n(CCCC)c1=O [denbufylline]
proliferation of HPBM from normal patients and subjects with atopic dermatitis [11]: concentration-related inhibition

Structure (SMILES): Cc1[nH]c(=O)c(C#N)cc1-c1ccncc1 [milrinone]
effect on relaxation of pulmonary artery rings [14]: same effect

Structure (SMILES): COc1ccc(C2CNC(=O)C2)cc1OC1CCCC1 (centres unmarked) [rolipram]
appearance of arthritic symptoms [15]: significantly delayed | effects in dextran sulfate induced colitis [7]: beneficial effects comparable to prednisolone | lowest topical dose inhibiting croton oil-induced ear inflammation [16]: 0.03 mg per ear | effect on relaxation of pulmonary artery rings [14]: potentiates the relaxant activities of isoproterenol and forskolin | proliferation of HPBM from normal patients and subjects with atopic dermatitis [11]: concentration-related inhibition | clinical signs and MRI imaging [17]: suppress the appearance of clinical signs and abolish abnormalities in MRI imaging
